From ChEMBL document CHEMBL1140184, “Synthesis and structure-activity relationship studies of highly potent novel oxazolidinone antibacterials” (2008)
≈ marks a conversion by molar mass, not a printed value.

What was measured:
Assay type in all cases: functional
Streptococcus pneumoniae [1] = assay: Antibacterial activity against penicillin-resistant Streptococcus pneumoniae PR44 by agar dilution method
Staphylococcus aureus [2] = assay: Antibacterial activity against methicillin-sensitive Staphylococcus aureus Smith by agar dilution method
Haemophilus influenzae = assay: Antibacterial activity against Haemophilus influenzae IID983 by agar dilution method
Enterococcus faecium = assay: Antibacterial activity against vancomycin-resistant Enterococcus faecium A2280 by agar dilution method
Streptococcus pneumoniae [3] = assay: Antibacterial activity against penicillin-susceptible Streptococcus pneumoniae IID553 by agar dilution method
Staphylococcus aureus [4] = assay: Antibacterial activity against methicillin-resistant Staphylococcus aureus TK7 by agar dilution method

N#Cc1ccc(N2C[C@@H]3[C@H](C2)[C@@]3(C#N)c2ccc(-c3ccc(N4C[C@H](Cn5ccnn5)OC4=O)cc3F)cn2)nc1
MIC (Streptococcus pneumoniae [1]): 0.06 µg/mL (≈ 0.11 µM)
MIC (Staphylococcus aureus [2]): 0.06 µg/mL (≈ 0.11 µM)
MIC (Haemophilus influenzae): > 2 µg/mL
MIC (Enterococcus faecium): 0.125 µg/mL (≈ 0.228 µM)
MIC (Streptococcus pneumoniae [3]): 0.125 µg/mL (≈ 0.228 µM)
MIC (Staphylococcus aureus [4]): 0.06 µg/mL (≈ 0.11 µM)

N[C@]1(c2ccc(-c3ccc(N4C[C@H](Cn5ccnn5)OC4=O)cc3F)cn2)[C@@H]2CNC[C@@H]21
MIC (Streptococcus pneumoniae [1]): 0.5 µg/mL (≈ 1.15 µM)
MIC (Staphylococcus aureus [2]): 1 µg/mL (≈ 2.3 µM)
MIC (Haemophilus influenzae): 32 µg/mL (≈ 73.5 µM)
MIC (Enterococcus faecium): 2 µg/mL (≈ 4.59 µM)
MIC (Streptococcus pneumoniae [3]): 0.5 µg/mL (≈ 1.15 µM)
MIC (Staphylococcus aureus [4]): 2 µg/mL (≈ 4.59 µM)

CC(=O)NC[C@H]1CN(c2ccc(-c3ccc([C@@]4(C#N)[C@@H]5CNC[C@@H]54)nc3)c(F)c2)C(=O)O1
MIC (Streptococcus pneumoniae [1]): 0.06 µg/mL (≈ 0.138 µM)
MIC (Staphylococcus aureus [2]): 0.125 µg/mL (≈ 0.287 µM)
MIC (Haemophilus influenzae): 4 µg/mL (≈ 9.19 µM)
MIC (Enterococcus faecium): 0.25 µg/mL (≈ 0.574 µM)
MIC (Streptococcus pneumoniae [3]): 0.125 µg/mL (≈ 0.287 µM)
MIC (Staphylococcus aureus [4]): 0.125 µg/mL (≈ 0.287 µM)

COC(=S)NC[C@H]1CN(c2ccc(-c3ccc([C@@]4(C#N)[C@@H]5CNC[C@@H]54)nc3)c(F)c2)C(=O)O1
MIC (Streptococcus pneumoniae [1]): 0.03 µg/mL (≈ 0.0642 µM)
MIC (Staphylococcus aureus [2]): 0.03 µg/mL (≈ 0.0642 µM)
MIC (Haemophilus influenzae): 0.5 µg/mL (≈ 1.07 µM)
MIC (Enterococcus faecium): 0.06 µg/mL (≈ 0.128 µM)
MIC (Streptococcus pneumoniae [3]): 0.03 µg/mL (≈ 0.0642 µM)
MIC (Staphylococcus aureus [4]): 0.03 µg/mL (≈ 0.0642 µM)

N#C[C@]1(c2ccc(-c3ccc(N4C[C@H](CNc5ccon5)OC4=O)cc3F)cn2)[C@@H]2CNC[C@@H]21
MIC (Streptococcus pneumoniae [1]): 0.25 µg/mL (≈ 0.543 µM)
MIC (Staphylococcus aureus [2]): 0.125 µg/mL (≈ 0.271 µM)
MIC (Haemophilus influenzae): > 16 µg/mL
MIC (Enterococcus faecium): 0.5 µg/mL (≈ 1.09 µM)
MIC (Streptococcus pneumoniae [3]): 0.25 µg/mL (≈ 0.543 µM)
MIC (Staphylococcus aureus [4]): 0.125 µg/mL (≈ 0.271 µM)

N#C[C@]1(c2ccc(-c3ccc(N4C[C@H](CNC(=O)C5CC5)OC4=O)cc3F)cn2)[C@@H]2CNC[C@@H]21
MIC (Streptococcus pneumoniae [1]): 0.25 µg/mL (≈ 0.542 µM)
MIC (Staphylococcus aureus [2]): 0.5 µg/mL (≈ 1.08 µM)
MIC (Haemophilus influenzae): 8 µg/mL (≈ 17.3 µM)
MIC (Enterococcus faecium): 0.5 µg/mL (≈ 1.08 µM)
MIC (Streptococcus pneumoniae [3]): 0.25 µg/mL (≈ 0.542 µM)
MIC (Staphylococcus aureus [4]): 0.25 µg/mL (≈ 0.542 µM)

NC(=O)[C@]1(c2ccc(-c3ccc(N4C[C@H](Cn5ccnn5)OC4=O)cc3F)cn2)[C@@H]2CNC[C@@H]21
MIC (Streptococcus pneumoniae [1]): 0.5 µg/mL (≈ 1.08 µM)
MIC (Staphylococcus aureus [2]): 2 µg/mL (≈ 4.32 µM)
MIC (Enterococcus faecium): 4 µg/mL (≈ 8.63 µM)
MIC (Streptococcus pneumoniae [3]): 1 µg/mL (≈ 2.16 µM)
MIC (Staphylococcus aureus [4]): 2 µg/mL (≈ 4.32 µM)

CCC(=O)NC[C@H]1CN(c2ccc(-c3ccc([C@@]4(C#N)[C@@H]5CNC[C@@H]54)nc3)c(F)c2)C(=O)O1
MIC (Streptococcus pneumoniae [1]): 0.125 µg/mL (≈ 0.278 µM)
MIC (Staphylococcus aureus [2]): 0.25 µg/mL (≈ 0.556 µM)
MIC (Haemophilus influenzae): 8 µg/mL (≈ 17.8 µM)
MIC (Enterococcus faecium): 0.25 µg/mL (≈ 0.556 µM)
MIC (Streptococcus pneumoniae [3]): 0.25 µg/mL (≈ 0.556 µM)
MIC (Staphylococcus aureus [4]): 0.25 µg/mL (≈ 0.556 µM)

N#C[C@]1(c2ccc(-c3ccc(N4C[C@H](CNC(=O)C(F)F)OC4=O)cc3F)cn2)[C@@H]2CNC[C@@H]21
MIC (Streptococcus pneumoniae [1]): 0.06 µg/mL (≈ 0.127 µM)
MIC (Staphylococcus aureus [2]): 0.125 µg/mL (≈ 0.265 µM)
MIC (Haemophilus influenzae): 2 µg/mL (≈ 4.24 µM)
MIC (Enterococcus faecium): 0.25 µg/mL (≈ 0.53 µM)
MIC (Streptococcus pneumoniae [3]): 0.06 µg/mL (≈ 0.127 µM)
MIC (Staphylococcus aureus [4]): 0.125 µg/mL (≈ 0.265 µM)

N#C[C@]1(c2ccc(-c3ccc(N4C[C@H](Cn5ccnn5)OC4=O)cc3F)cn2)[C@@H]2CS(=O)(=O)C[C@@H]21
MIC (Streptococcus pneumoniae [1]): 0.06 µg/mL (≈ 0.121 µM)
MIC (Staphylococcus aureus [2]): 0.06 µg/mL (≈ 0.121 µM)
MIC (Haemophilus influenzae): 4 µg/mL (≈ 8.09 µM)
MIC (Enterococcus faecium): 0.06 µg/mL (≈ 0.121 µM)
MIC (Streptococcus pneumoniae [3]): 0.125 µg/mL (≈ 0.253 µM)
MIC (Staphylococcus aureus [4]): 0.125 µg/mL (≈ 0.253 µM)

N#C[C@]1(c2ccc(-c3ccc(N4C[C@H](Cn5ccnn5)OC4=O)cc3)cn2)[C@@H]2CNC[C@@H]21
MIC (Streptococcus pneumoniae [1]): 0.125 µg/mL (≈ 0.292 µM)
MIC (Staphylococcus aureus [2]): 0.125 µg/mL (≈ 0.292 µM)
MIC (Haemophilus influenzae): 2 µg/mL (≈ 4.68 µM)
MIC (Enterococcus faecium): 0.25 µg/mL (≈ 0.585 µM)
MIC (Streptococcus pneumoniae [3]): 0.125 µg/mL (≈ 0.292 µM)
MIC (Staphylococcus aureus [4]): 0.125 µg/mL (≈ 0.292 µM)

N#C[C@]1(c2ccc(-c3ccc(N4C[C@H](Cn5ccnn5)OC4=O)cc3F)cn2)[C@@H]2CNC[C@@H]21
MIC (Streptococcus pneumoniae [1]): 0.06 µg/mL (≈ 0.135 µM)
MIC (Staphylococcus aureus [2]): 0.06 µg/mL (≈ 0.135 µM)
MIC (Haemophilus influenzae): 2 µg/mL (≈ 4.49 µM)
MIC (Enterococcus faecium): 0.125 µg/mL (≈ 0.281 µM)
MIC (Streptococcus pneumoniae [3]): 0.06 µg/mL (≈ 0.135 µM)
MIC (Staphylococcus aureus [4]): 0.06 µg/mL (≈ 0.135 µM)

N#C[C@]1(c2ccc(-c3c(F)cc(N4C[C@H](Cn5ccnn5)OC4=O)cc3F)cn2)[C@@H]2C[S+]([O-])C[C@@H]21 (stereo partly specified)
MIC (Streptococcus pneumoniae [1]): 0.125 µg/mL (≈ 0.252 µM)
MIC (Staphylococcus aureus [2]): 0.06 µg/mL (≈ 0.121 µM)
MIC (Haemophilus influenzae): 8 µg/mL (≈ 16.1 µM)
MIC (Enterococcus faecium): 0.125 µg/mL (≈ 0.252 µM)
MIC (Streptococcus pneumoniae [3]): 0.125 µg/mL (≈ 0.252 µM)
MIC (Staphylococcus aureus [4]): 0.06 µg/mL (≈ 0.121 µM)

N#C[C@]1(c2ccc(-c3ccc(N4C[C@H](Cn5ccnn5)OC4=O)cc3F)cc2F)[C@@H]2CNC[C@@H]21
MIC (Streptococcus pneumoniae [1]): 0.25 µg/mL (≈ 0.541 µM)
MIC (Staphylococcus aureus [2]): 0.25 µg/mL (≈ 0.541 µM)
MIC (Haemophilus influenzae): 16 µg/mL (≈ 34.6 µM)
MIC (Enterococcus faecium): 0.25 µg/mL (≈ 0.541 µM)
MIC (Streptococcus pneumoniae [3]): 0.25 µg/mL (≈ 0.541 µM)
MIC (Staphylococcus aureus [4]): 0.125 µg/mL (≈ 0.27 µM)

N#C[C@]1(c2c(F)cc(-c3ccc(N4C[C@H](Cn5ccnn5)OC4=O)cc3F)cc2F)[C@@H]2CNC[C@@H]21
MIC (Streptococcus pneumoniae [1]): 1 µg/mL (≈ 2.08 µM)
MIC (Staphylococcus aureus [2]): 0.5 µg/mL (≈ 1.04 µM)
MIC (Haemophilus influenzae): > 128 µg/mL
MIC (Enterococcus faecium): 0.25 µg/mL (≈ 0.52 µM)
MIC (Streptococcus pneumoniae [3]): 1 µg/mL (≈ 2.08 µM)
MIC (Staphylococcus aureus [4]): 0.5 µg/mL (≈ 1.04 µM)

N#C[C@]1(c2ccc(-c3c(F)cc(N4C[C@H](Cn5ccnn5)OC4=O)cc3F)cn2)[C@@H]2CS(=O)(=O)C[C@@H]21
MIC (Streptococcus pneumoniae [1]): 0.06 µg/mL (≈ 0.117 µM)
MIC (Staphylococcus aureus [2]): 0.06 µg/mL (≈ 0.117 µM)
MIC (Haemophilus influenzae): 4 µg/mL (≈ 7.8 µM)
MIC (Enterococcus faecium): 0.125 µg/mL (≈ 0.244 µM)
MIC (Streptococcus pneumoniae [3]): 0.06 µg/mL (≈ 0.117 µM)
MIC (Staphylococcus aureus [4]): 0.06 µg/mL (≈ 0.117 µM)

N#C[C@]1(c2ccc(-c3c(F)cc(N4C[C@H](Cn5ccnn5)OC4=O)cc3F)cn2)[C@@H]2CSC[C@@H]21
MIC (Streptococcus pneumoniae [1]): 0.25 µg/mL (≈ 0.52 µM)
MIC (Staphylococcus aureus [2]): 0.06 µg/mL (≈ 0.125 µM)
MIC (Haemophilus influenzae): > 16 µg/mL
MIC (Enterococcus faecium): 0.5 µg/mL (≈ 1.04 µM)
MIC (Streptococcus pneumoniae [3]): 0.25 µg/mL (≈ 0.52 µM)
MIC (Staphylococcus aureus [4]): 0.06 µg/mL (≈ 0.125 µM)
